For the series, the system named is normal human epidermal keratinocytes (NHEKs). Put plainly: LDH release cytotoxicity assay in keratinocytes. It counts as cell-based. To be noted: minimal concentration giving 50% LDH release by NHEKs. The source says: Since LL-34 was the minimal truncation mutant of LL-37 that retained both antimicrobial and immune modulatory activity, we prepared a series of synthetic peptides with sequential substitutions of alanine at each amino acid position of the LL-34 parent peptide (Table 1). We compared the minimum inhibitory concentration (MIC) for the LL-34 parent peptide and the alanine mutants (LL-34 peptides—L1A and R34A) against methicillin-resistant Staphylococcus aureus strain USA300 (Fig. 1A). LL-34 peptides were incubated at concentrations of 0 to 100 μM with bacteria. The minimal concentration at which no growth was observed was noted after 18 h of incubation. […] Because of these changes in the MIC against S. aureus between the mutants, we investigated the effective toxicity profile of the peptides in normal human epidermal keratinocytes (NHEKs) by lactate dehydrogenase (LDH) release assay (Table 1). […] Most other peptides were cytotoxic at a minimal concentration of 10 μM, whereas LL-34—K15A was toxic at a concentration of 2.5 μM.
LDH cytotoxicity assay was performed according to manufacturer's instructions (Thermo Fisher Scientific). Culture supernatants from keratinocytes were used fresh for LDH assay after experimental treatments.

Residues, ends and D or L forms follow the SMILES beside them.

Turning to `CC[C@H](C)[C@H](NC(=O)[C@H](CCCCN)NC(=O)[C@H](CCC(=O)O)NC(=O)[C@H](CCCCN)NC(=O)[C@H](CO)NC(=O)[C@H](CCCCN)NC(=O)[C@H](CCCNC(=N)N)NC(=O)[C@H](Cc1ccccc1)NC(=O)[C@H](Cc1ccccc1)NC(=O)[C@H](CC(=O)O)NC(=O)CNC(=O)[C@H](CC(C)C)NC(=O)[C@@H](N)CC(C)C)C(=O)NCC(=O)N[C@@H](CCCCN)C(=O)N[C@@H](CCC(=O)O)C(=O)N[C@@H](Cc1ccccc1)C(=O)N[C@@H](CCCCN)C(=O)N[C@@H](CCCNC(=N)N)C(=O)N[C@H](C(=O)N[C@H](C(=O)N[C@@H](C)C(=O)N[C@@H](CCCNC(=N)N)C(=O)N[C@H](C(=O)N[C@@H](CCCCN)C(=O)N[C@@H](CC(=O)O)C(=O)N[C@@H](Cc1ccccc1)C(=O)N[C@@H](CC(C)C)C(=O)N[C@@H](CCCNC(=N)N)C(=O)N[C@@H](CC(N)=O)C(=O)N[C@@H](CC(C)C)C(=O)N[C@H](C(=O)N1CCC[C@H]1C(=O)N[C@@H](CCCNC(=N)N)C(=O)O)C(C)C)[C@@H](C)CC)C(C)C)[C@@H](C)CC` [LL-34—Q22A] (H-LLGDFFRKSKEKIGKEFKRIVARIKDFLRNLVPR-OH; N-terminus and C-terminus assumed), the “Minimal cytotoxic concentration in NHEK (LD50)” value (“Minimal cytotoxic concentration” for short) was 5 µM.

`CC[C@H](C)[C@H](NC(=O)[C@H](CCCCN)NC(=O)[C@H](CCC(=O)O)NC(=O)[C@H](C)NC(=O)[C@H](CO)NC(=O)[C@H](CCCCN)NC(=O)[C@H](CCCNC(=N)N)NC(=O)[C@H](Cc1ccccc1)NC(=O)[C@H](Cc1ccccc1)NC(=O)[C@H](CC(=O)O)NC(=O)CNC(=O)[C@H](CC(C)C)NC(=O)[C@@H](N)CC(C)C)C(=O)NCC(=O)N[C@@H](CCCCN)C(=O)N[C@@H](CCC(=O)O)C(=O)N[C@@H](Cc1ccccc1)C(=O)N[C@@H](CCCCN)C(=O)N[C@@H](CCCNC(=N)N)C(=O)N[C@H](C(=O)N[C@H](C(=O)N[C@@H](CCC(N)=O)C(=O)N[C@@H](CCCNC(=N)N)C(=O)N[C@H](C(=O)N[C@@H](CCCCN)C(=O)N[C@@H](CC(=O)O)C(=O)N[C@@H](Cc1ccccc1)C(=O)N[C@@H](CC(C)C)C(=O)N[C@@H](CCCNC(=N)N)C(=O)N[C@@H](CC(N)=O)C(=O)N[C@@H](CC(C)C)C(=O)N[C@H](C(=O)N1CCC[C@H]1C(=O)N[C@@H](CCCNC(=N)N)C(=O)O)C(C)C)[C@@H](C)CC)C(C)C)[C@@H](C)CC` [LL-34—K10A] (H-LLGDFFRKSAEKIGKEFKRIVQRIKDFLRNLVPR-OH; N-terminus and C-terminus assumed): the “Minimal cytotoxic concentration” value worked out at 5 µM.

In the case of `CC[C@H](C)[C@H](NC(=O)[C@H](CCCCN)NC(=O)[C@H](CCC(=O)O)NC(=O)[C@H](CCCCN)NC(=O)[C@H](CO)NC(=O)[C@H](CCCCN)NC(=O)[C@H](CCCNC(=N)N)NC(=O)[C@H](Cc1ccccc1)NC(=O)[C@H](Cc1ccccc1)NC(=O)[C@H](CC(=O)O)NC(=O)CNC(=O)[C@H](CC(C)C)NC(=O)[C@H](C)N)C(=O)NCC(=O)N[C@@H](CCCCN)C(=O)N[C@@H](CCC(=O)O)C(=O)N[C@@H](Cc1ccccc1)C(=O)N[C@@H](CCCCN)C(=O)N[C@@H](CCCNC(=N)N)C(=O)N[C@H](C(=O)N[C@H](C(=O)N[C@@H](CCC(N)=O)C(=O)N[C@@H](CCCNC(=N)N)C(=O)N[C@H](C(=O)N[C@@H](CCCCN)C(=O)N[C@@H](CC(=O)O)C(=O)N[C@@H](Cc1ccccc1)C(=O)N[C@@H](CC(C)C)C(=O)N[C@@H](CCCNC(=N)N)C(=O)N[C@@H](CC(N)=O)C(=O)N[C@@H](CC(C)C)C(=O)N[C@H](C(=O)N1CCC[C@H]1C(=O)N[C@@H](CCCNC(=N)N)C(=O)O)C(C)C)[C@@H](C)CC)C(C)C)[C@@H](C)CC` [LL-34—L1A] (H-ALGDFFRKSKEKIGKEFKRIVQRIKDFLRNLVPR-OH; N-terminus and C-terminus assumed), the “Minimal cytotoxic concentration” value was found to be 5 µM.

`CC[C@H](C)[C@H](NC(=O)[C@H](CCCCN)NC(=O)[C@H](CCC(=O)O)NC(=O)[C@H](CCCCN)NC(=O)[C@H](CO)NC(=O)[C@H](CCCCN)NC(=O)[C@H](C)NC(=O)[C@H](Cc1ccccc1)NC(=O)[C@H](Cc1ccccc1)NC(=O)[C@H](CC(=O)O)NC(=O)CNC(=O)[C@H](CC(C)C)NC(=O)[C@@H](N)CC(C)C)C(=O)NCC(=O)N[C@@H](CCCCN)C(=O)N[C@@H](CCC(=O)O)C(=O)N[C@@H](Cc1ccccc1)C(=O)N[C@@H](CCCCN)C(=O)N[C@@H](CCCNC(=N)N)C(=O)N[C@H](C(=O)N[C@H](C(=O)N[C@@H](CCC(N)=O)C(=O)N[C@@H](CCCNC(=N)N)C(=O)N[C@H](C(=O)N[C@@H](CCCCN)C(=O)N[C@@H](CC(=O)O)C(=O)N[C@@H](Cc1ccccc1)C(=O)N[C@@H](CC(C)C)C(=O)N[C@@H](CCCNC(=N)N)C(=O)N[C@@H](CC(N)=O)C(=O)N[C@@H](CC(C)C)C(=O)N[C@H](C(=O)N1CCC[C@H]1C(=O)N[C@@H](CCCNC(=N)N)C(=O)O)C(C)C)[C@@H](C)CC)C(C)C)[C@@H](C)CC` [LL-34—R7A] (H-LLGDFFAKSKEKIGKEFKRIVQRIKDFLRNLVPR-OH; N-terminus and C-terminus assumed): the “Minimal cytotoxic concentration” value came out at 5 µM.

`CC[C@H](C)[C@H](NC(=O)[C@H](CCCCN)NC(=O)[C@H](CCC(=O)O)NC(=O)[C@H](CCCCN)NC(=O)[C@H](CO)NC(=O)[C@H](CCCCN)NC(=O)[C@H](CCCNC(=N)N)NC(=O)[C@H](Cc1ccccc1)NC(=O)[C@H](Cc1ccccc1)NC(=O)[C@H](CC(=O)O)NC(=O)CNC(=O)[C@H](CC(C)C)NC(=O)[C@@H](N)CC(C)C)C(=O)NCC(=O)N[C@@H](C)C(=O)N[C@@H](CCC(=O)O)C(=O)N[C@@H](Cc1ccccc1)C(=O)N[C@@H](CCCCN)C(=O)N[C@@H](CCCNC(=N)N)C(=O)N[C@H](C(=O)N[C@H](C(=O)N[C@@H](CCC(N)=O)C(=O)N[C@@H](CCCNC(=N)N)C(=O)N[C@H](C(=O)N[C@@H](CCCCN)C(=O)N[C@@H](CC(=O)O)C(=O)N[C@@H](Cc1ccccc1)C(=O)N[C@@H](CC(C)C)C(=O)N[C@@H](CCCNC(=N)N)C(=O)N[C@@H](CC(N)=O)C(=O)N[C@@H](CC(C)C)C(=O)N[C@H](C(=O)N1CCC[C@H]1C(=O)N[C@@H](CCCNC(=N)N)C(=O)O)C(C)C)[C@@H](C)CC)C(C)C)[C@@H](C)CC` [LL-34—K15A] (H-LLGDFFRKSKEKIGAEFKRIVQRIKDFLRNLVPR-OH; N-terminus and C-terminus assumed): the “Minimal cytotoxic concentration” value is 2.5 µM.

For the molecule `CC[C@H](C)[C@H](NC(=O)[C@H](CCCCN)NC(=O)[C@H](CCC(=O)O)NC(=O)[C@H](CCCCN)NC(=O)[C@H](CO)NC(=O)[C@H](CCCCN)NC(=O)[C@H](CCCNC(=N)N)NC(=O)[C@H](Cc1ccccc1)NC(=O)[C@H](Cc1ccccc1)NC(=O)[C@H](CC(=O)O)NC(=O)CNC(=O)[C@H](CC(C)C)NC(=O)[C@@H](N)CC(C)C)C(=O)NCC(=O)N[C@@H](CCCCN)C(=O)N[C@@H](CCC(=O)O)C(=O)N[C@@H](Cc1ccccc1)C(=O)N[C@@H](CCCCN)C(=O)N[C@@H](CCCNC(=N)N)C(=O)N[C@H](C(=O)N[C@H](C(=O)N[C@@H](CCC(N)=O)C(=O)N[C@@H](CCCNC(=N)N)C(=O)N[C@H](C(=O)N[C@@H](CCCCN)C(=O)N[C@@H](CC(=O)O)C(=O)N[C@@H](Cc1ccccc1)C(=O)N[C@@H](CC(C)C)C(=O)N[C@@H](CCCNC(=N)N)C(=O)N[C@@H](C)C(=O)N[C@@H](CC(C)C)C(=O)N[C@H](C(=O)N1CCC[C@H]1C(=O)N[C@@H](CCCNC(=N)N)C(=O)O)C(C)C)[C@@H](C)CC)C(C)C)[C@@H](C)CC` [LL-34—N30A] (H-LLGDFFRKSKEKIGKEFKRIVQRIKDFLRALVPR-OH; N-terminus and C-terminus assumed), the “Minimal cytotoxic concentration” value came out at 10 µM.

In the case of `CC[C@H](C)[C@H](NC(=O)[C@H](CCCCN)NC(=O)[C@H](CCC(=O)O)NC(=O)[C@H](CCCCN)NC(=O)[C@H](CO)NC(=O)[C@H](CCCCN)NC(=O)[C@H](CCCNC(=N)N)NC(=O)[C@H](Cc1ccccc1)NC(=O)[C@H](Cc1ccccc1)NC(=O)[C@H](CC(=O)O)NC(=O)CNC(=O)[C@H](CC(C)C)NC(=O)[C@@H](N)CC(C)C)C(=O)NCC(=O)N[C@@H](CCCCN)C(=O)N[C@@H](CCC(=O)O)C(=O)N[C@@H](Cc1ccccc1)C(=O)N[C@@H](CCCCN)C(=O)N[C@@H](CCCNC(=N)N)C(=O)N[C@H](C(=O)N[C@H](C(=O)N[C@@H](CCC(N)=O)C(=O)N[C@@H](CCCNC(=N)N)C(=O)N[C@H](C(=O)N[C@@H](CCCCN)C(=O)N[C@@H](CC(=O)O)C(=O)N[C@@H](Cc1ccccc1)C(=O)N[C@@H](CC(C)C)C(=O)N[C@@H](CCCNC(=N)N)C(=O)N[C@@H](CC(N)=O)C(=O)N[C@@H](CC(C)C)C(=O)N[C@H](C(=O)N[C@@H](C)C(=O)N[C@@H](CCCNC(=N)N)C(=O)O)C(C)C)[C@@H](C)CC)C(C)C)[C@@H](C)CC` [LL-34—P33A] (H-LLGDFFRKSKEKIGKEFKRIVQRIKDFLRNLVAR-OH; N-terminus and C-terminus assumed), the “Minimal cytotoxic concentration” value turned out to be 10 µM.
